From PMC11124822, “Discovery and Anticancer Screening of Novel Oxindole-Based Derivative Bearing Pyridyl Group as Potent and Selective Dual FLT3/CDK2 Kinase Inhibitor” (Pharmaceuticals, 2024)

tested on: MOLT-4; test: NCI-60 antiproliferative screen (SRB); format: cell-based; settings: Homo sapiens; 10 µM single dose, 48 h; MOLT-4 (Leukemia); read-out: Growth inhibition (%)

| Compound | inhibition at 10 µM |
| --- | --- |
| O=C1Nc2ccc(F)cc2C1=Cc1ccc(OCc2ccccc2)cc1 (mixture of isomers) [Compound 5b, (E/Z)-3-[4-(Benzyloxy)benzylidene]-5-fluoroindolin-2-one] | -0.05% |

tested on: RPMI-8226; test: NCI-60 antiproliferative screen (SRB); format: cell-based, human; settings: Homo sapiens; 10 µM single dose, 48 h; RPMI-8226 (Leukemia); read-out: Growth inhibition (%)

| Compound | inhibition at 10 µM |
| --- | --- |
| O=C1Nc2ccc(F)cc2C1=Cc1ccc(OCc2ccccc2)cc1 (mixture of isomers) [Compound 5b, (E/Z)-3-[4-(Benzyloxy)benzylidene]-5-fluoroindolin-2-one] | 2.59% |

tested on: HOP-62; test: NCI-60 antiproliferative screen (SRB); format: cell-based, human; settings: Homo sapiens; 10 µM single dose, 48 h; HOP-62 (NSCLC); read-out: Growth inhibition (%)

| Compound | inhibition at 10 µM |
| --- | --- |
| O=C1Nc2ccc(F)cc2C1=Cc1ccc(OCc2ccccc2)cc1 (mixture of isomers) [Compound 5b, (E/Z)-3-[4-(Benzyloxy)benzylidene]-5-fluoroindolin-2-one] | -1.2% |

tested on: HCC-2998; test: NCI-60 antiproliferative screen (SRB); format: cell-based, human; settings: Homo sapiens; 10 µM single dose, 48 h; HCC-2998 (Colon); read-out: Growth inhibition (%)

| Compound | inhibition at 10 µM |
| --- | --- |
| O=C1Nc2ccc(F)cc2C1=Cc1ccc(OCc2ccccc2)cc1 (mixture of isomers) [Compound 5b, (E/Z)-3-[4-(Benzyloxy)benzylidene]-5-fluoroindolin-2-one] | -9.12% |

tested on: HCT-116; test: NCI-60 antiproliferative screen (SRB); format: cell-based, human; settings: Homo sapiens; 10 µM single dose, 48 h; HCT-116 (Colon); read-out: Growth inhibition (%)

| Compound | inhibition at 10 µM |
| --- | --- |
| O=C1Nc2ccc(F)cc2C1=Cc1ccc(OCc2ccccc2)cc1 (mixture of isomers) [Compound 5b, (E/Z)-3-[4-(Benzyloxy)benzylidene]-5-fluoroindolin-2-one] | 4.15% |

tested on: KM12; test: NCI-60 antiproliferative screen (SRB); format: cell-based, human; settings: Homo sapiens; 10 µM single dose, 48 h; KM12 (Colon); read-out: Growth inhibition (%)

| Compound | inhibition at 10 µM |
| --- | --- |
| O=C1Nc2ccc(F)cc2C1=Cc1ccc(OCc2ccccc2)cc1 (mixture of isomers) [Compound 5b, (E/Z)-3-[4-(Benzyloxy)benzylidene]-5-fluoroindolin-2-one] | 2.42% |

tested on: SW-620; test: NCI-60 antiproliferative screen (SRB); format: cell-based, human; settings: Homo sapiens; 10 µM single dose, 48 h; SW-620 (Colon); read-out: Growth inhibition (%)

| Compound | inhibition at 10 µM |
| --- | --- |
| O=C1Nc2ccc(F)cc2C1=Cc1ccc(OCc2ccccc2)cc1 (mixture of isomers) [Compound 5b, (E/Z)-3-[4-(Benzyloxy)benzylidene]-5-fluoroindolin-2-one] | -2.34% |

tested on: SF-295; test: NCI-60 antiproliferative screen (SRB); format: cell-based, human; settings: Homo sapiens; 10 µM single dose, 48 h; SF-295 (CNS); read-out: Growth inhibition (%)

| Compound | inhibition at 10 µM |
| --- | --- |
| O=C1Nc2ccc(F)cc2C1=Cc1ccc(OCc2ccccc2)cc1 (mixture of isomers) [Compound 5b, (E/Z)-3-[4-(Benzyloxy)benzylidene]-5-fluoroindolin-2-one] | 1.11% |

tested on: SF-539; test: NCI-60 antiproliferative screen (SRB); format: cell-based, human; settings: Homo sapiens; 10 µM single dose, 48 h; SF-539 (CNS); read-out: Growth inhibition (%)

| Compound | inhibition at 10 µM |
| --- | --- |
| O=C1Nc2ccc(F)cc2C1=Cc1ccc(OCc2ccccc2)cc1 (mixture of isomers) [Compound 5b, (E/Z)-3-[4-(Benzyloxy)benzylidene]-5-fluoroindolin-2-one] | 4.67% |

tested on: U251; test: NCI-60 antiproliferative screen (SRB); format: cell-based, human; settings: Homo sapiens, U-251; 10 µM single dose, 48 h; U251 (CNS); read-out: Growth inhibition (%)

| Compound | inhibition at 10 µM |
| --- | --- |
| O=C1Nc2ccc(F)cc2C1=Cc1ccc(OCc2ccccc2)cc1 (mixture of isomers) [Compound 5b, (E/Z)-3-[4-(Benzyloxy)benzylidene]-5-fluoroindolin-2-one] | 0.4% |

tested on: MALME-3M; test: NCI-60 antiproliferative screen (SRB); format: cell-based, human; settings: Homo sapiens; 10 µM single dose, 48 h; MALME-3M (Melanoma); read-out: Growth inhibition (%)

| Compound | inhibition at 10 µM |
| --- | --- |
| O=C1Nc2ccc(F)cc2C1=Cc1ccc(OCc2ccccc2)cc1 (mixture of isomers) [Compound 5b, (E/Z)-3-[4-(Benzyloxy)benzylidene]-5-fluoroindolin-2-one] | 7.33% |

tested on: M14; test: NCI-60 antiproliferative screen (SRB); format: cell-based, human; settings: Homo sapiens; 10 µM single dose, 48 h; M14 (Melanoma); read-out: Growth inhibition (%)

| Compound | inhibition at 10 µM |
| --- | --- |
| O=C1Nc2ccc(F)cc2C1=Cc1ccc(OCc2ccccc2)cc1 (mixture of isomers) [Compound 5b, (E/Z)-3-[4-(Benzyloxy)benzylidene]-5-fluoroindolin-2-one] | 3.39% |

tested on: SK-MEL-28; test: NCI-60 antiproliferative screen (SRB); format: cell-based, human; settings: Homo sapiens; 10 µM single dose, 48 h; SK-MEL-28 (Melanoma); read-out: Growth inhibition (%)

| Compound | inhibition at 10 µM |
| --- | --- |
| O=C1Nc2ccc(F)cc2C1=Cc1ccc(OCc2ccccc2)cc1 (mixture of isomers) [Compound 5b, (E/Z)-3-[4-(Benzyloxy)benzylidene]-5-fluoroindolin-2-one] | 2.92% |

tested on: UACC-257; test: NCI-60 antiproliferative screen (SRB); format: cell-based, human; settings: Homo sapiens; 10 µM single dose, 48 h; UACC-257 (Melanoma); read-out: Growth inhibition (%)

| Compound | inhibition at 10 µM |
| --- | --- |
| O=C1Nc2ccc(F)cc2C1=Cc1ccc(OCc2ccccc2)cc1 (mixture of isomers) [Compound 5b, (E/Z)-3-[4-(Benzyloxy)benzylidene]-5-fluoroindolin-2-one] | 2.53% |

tested on: OVCAR-5; test: NCI-60 antiproliferative screen (SRB); format: cell-based, human; settings: Homo sapiens; 10 µM single dose, 48 h; OVCAR-5 (Ovarian); read-out: Growth inhibition (%)

| Compound | inhibition at 10 µM |
| --- | --- |
| O=C1Nc2ccc(F)cc2C1=Cc1ccc(OCc2ccccc2)cc1 (mixture of isomers) [Compound 5b, (E/Z)-3-[4-(Benzyloxy)benzylidene]-5-fluoroindolin-2-one] | -0.99% |

tested on: OVCAR-8; test: NCI-60 antiproliferative screen (SRB); format: cell-based, human; settings: Homo sapiens; 10 µM single dose, 48 h; OVCAR-8 (Ovarian); read-out: Growth inhibition (%)

| Compound | inhibition at 10 µM |
| --- | --- |
| O=C1Nc2ccc(F)cc2C1=Cc1ccc(OCc2ccccc2)cc1 (mixture of isomers) [Compound 5b, (E/Z)-3-[4-(Benzyloxy)benzylidene]-5-fluoroindolin-2-one] | -0.84% |

tested on: NCI/ADR-RES; test: NCI-60 antiproliferative screen (SRB); format: cell-based, human; settings: Homo sapiens; 10 µM single dose, 48 h; NCI/ADR-RES (Ovarian); read-out: Growth inhibition (%)

| Compound | inhibition at 10 µM |
| --- | --- |
| O=C1Nc2ccc(F)cc2C1=Cc1ccc(OCc2ccccc2)cc1 (mixture of isomers) [Compound 5b, (E/Z)-3-[4-(Benzyloxy)benzylidene]-5-fluoroindolin-2-one] | 0.01% |

tested on: CAKI-1; test: NCI-60 antiproliferative screen (SRB); format: cell-based, human; settings: Homo sapiens; 10 µM single dose, 48 h; CAKI-1 (Renal); read-out: Growth inhibition (%)

| Compound | inhibition at 10 µM |
| --- | --- |
| O=C1Nc2ccc(F)cc2C1=Cc1ccc(OCc2ccccc2)cc1 (mixture of isomers) [Compound 5b, (E/Z)-3-[4-(Benzyloxy)benzylidene]-5-fluoroindolin-2-one] | 8.23% |

tested on: RXF 393; test: NCI-60 antiproliferative screen (SRB); format: cell-based, human; settings: Homo sapiens; 10 µM single dose, 48 h; RXF 393 (Renal); read-out: Growth inhibition (%)

| Compound | inhibition at 10 µM |
| --- | --- |
| O=C1Nc2ccc(F)cc2C1=Cc1ccc(OCc2ccccc2)cc1 (mixture of isomers) [Compound 5b, (E/Z)-3-[4-(Benzyloxy)benzylidene]-5-fluoroindolin-2-one] | 0.31% |

tested on: UO-31; test: NCI-60 antiproliferative screen (SRB); format: cell-based, human; settings: Homo sapiens; 10 µM single dose, 48 h; UO-31 (Renal); read-out: Growth inhibition (%)

| Compound | inhibition at 10 µM |
| --- | --- |
| O=C1Nc2ccc(F)cc2C1=Cc1ccc(OCc2ccccc2)cc1 (mixture of isomers) [Compound 5b, (E/Z)-3-[4-(Benzyloxy)benzylidene]-5-fluoroindolin-2-one] | 2.55% |

tested on: PC-3; test: NCI-60 antiproliferative screen (SRB); format: cell-based, human; settings: Homo sapiens; 10 µM single dose, 48 h; PC-3 (Prostate); read-out: Growth inhibition (%)

| Compound | inhibition at 10 µM |
| --- | --- |
| O=C1Nc2ccc(F)cc2C1=Cc1ccc(OCc2ccccc2)cc1 (mixture of isomers) [Compound 5b, (E/Z)-3-[4-(Benzyloxy)benzylidene]-5-fluoroindolin-2-one] | -2.77% |

tested on: DU-145; test: NCI-60 antiproliferative screen (SRB); format: cell-based, human; settings: Homo sapiens; 10 µM single dose, 48 h; DU-145 (Prostate); read-out: Growth inhibition (%)

| Compound | inhibition at 10 µM |
| --- | --- |
| O=C1Nc2ccc(F)cc2C1=Cc1ccc(OCc2ccccc2)cc1 (mixture of isomers) [Compound 5b, (E/Z)-3-[4-(Benzyloxy)benzylidene]-5-fluoroindolin-2-one] | 0.4% |

tested on: MCF7; test: NCI-60 antiproliferative screen (SRB); format: cell-based, human; settings: Homo sapiens; 10 µM single dose, 48 h; MCF7 (Breast); read-out: Growth inhibition (%)

| Compound | inhibition at 10 µM |
| --- | --- |
| O=C1Nc2ccc(F)cc2C1=Cc1ccc(OCc2ccccc2)cc1 (mixture of isomers) [Compound 5b, (E/Z)-3-[4-(Benzyloxy)benzylidene]-5-fluoroindolin-2-one] | 7.57% |

tested on: MDA-MB-231; test: NCI-60 antiproliferative screen (SRB); format: cell-based, human; settings: Homo sapiens; 10 µM single dose, 48 h; MDA-MB-231 (Breast); read-out: Growth inhibition (%)

| Compound | inhibition at 10 µM |
| --- | --- |
| O=C1Nc2ccc(F)cc2C1=Cc1ccc(OCc2ccccc2)cc1 (mixture of isomers) [Compound 5b, (E/Z)-3-[4-(Benzyloxy)benzylidene]-5-fluoroindolin-2-one] | 2.43% |

tested on: MDA-MB-468; test: NCI-60 antiproliferative screen (SRB); format: cell-based, human; settings: Homo sapiens; 10 µM single dose, 48 h; MDA-MB-468 (Breast); read-out: Growth inhibition (%)

| Compound | inhibition at 10 µM |
| --- | --- |
| O=C1Nc2ccc(F)cc2C1=Cc1ccc(OCc2ccccc2)cc1 (mixture of isomers) [Compound 5b, (E/Z)-3-[4-(Benzyloxy)benzylidene]-5-fluoroindolin-2-one] | 1.56% |

tested on: SR; test: NCI-60 antiproliferative screen (SRB); settings: Homo sapiens, 48 h, read-out: Growth inhibition (%)

| Compound | inhibition at 10 µM |
| --- | --- |
| O=C1Nc2ccc(F)cc2C1=Cc1ccc(OCc2ccccc2)cc1 (mixture of isomers) [Compound 5b, (E/Z)-3-[4-(Benzyloxy)benzylidene]-5-fluoroindolin-2-one] | -0.14% |

tested on: OVCAR-4; test: NCI-60 antiproliferative screen (SRB); settings: Homo sapiens, OVCAR-4, 48 h, read-out: Growth inhibition (%)

| Compound | inhibition at 10 µM |
| --- | --- |
| O=C1Nc2ccc(F)cc2C1=Cc1ccc(OCc2ccccc2)cc1 (mixture of isomers) [Compound 5b, (E/Z)-3-[4-(Benzyloxy)benzylidene]-5-fluoroindolin-2-one] | 0.82% |
